US10894777B2, “TG2 inhibitor piperazine compounds and uses thereof” (UNIVERSITY OF OTTAWA, priority 2016, dated 2021)

Tests used:
Assay type in all cases: cell-based, human
EGFR = assay: Immunoblot of EGFR and phospho-EGFR in GBM cells
Procedure: In (A) it is shown that shorter treatments with NC9 had no effect on EGF-stimulated EGFR phosphorylation in U87 cells. U87 cells were treated with 10 μM NC9 or DMSO control for 24 h followed by 10 min of 100 ng/mL EGF treatment. At the end of the treatments, cells were lysed and 20 μg of lysates from U87 cells were blotted for phospho-EGFR, EGFR and tubulin. […] Cell medium was changed every 24 h and fresh inhibitors or DMSO was added to the medium. At the end of the treatment, cells were lysed and 20 μg of lysates from cells U87 and T98G were blotted for phospho-EGFR, EGFR and actin.
Immunoblotting. Cells were rinsed in ice-cold phosphate-buffered saline (PBS) and collected in lysis buffer, containing 0.5% NP-40, 150 mM NaCl, 10 mM Tris-Cl (pH 7.4), 1 mM EGTA, 1 mM EDTA, 1 mM phenylmethylsulphonyl fluoride, 1 μM okadaic acid, and 10 μg/mL each of aprotinin, leupeptin, and pepstatin. Samples were sonicated on ice and centrifuged at 16,000 g for 10 min. Protein concentrations of supernatants were then determined by the bicinchoninic acid assay with bovine serum albumin (BSA) as a standard and samples were diluted to a final concentration of 1 mg/mL with 2× reducing stop buffer (0.25 M Tris-HCl, pH 6.8, 5 mM EDTA, 5 mM EGTA, 25 mM dithiothreitol, 2% SDS, 10% glycerol, and bromophenol blue as the tracking dye). […]

procaspase 3 = assay: Immunoblot of procaspase 3 cleavage, SCC-13 spheroids; conditions: 8 day spheroids, 20 μM
Procedure: In (A), SCC-13 cells (40,000) were plated in non-adherent six well dishes, grown for 8 days in spheroid medium, and then NC9 was added and spheroid number was monitored at 0-48 hours. In (B), spheroids were grown for 10 days, treated for 48 hours with indicated level of NC9 and photographed. In (C), SCC-13 cells were plated at 40,000 cells per well in non-adherent six well dishes and after 10 days the spheroids were treated with 0-20 μM NC9 for 0-72 hours before trypan blue exclusion viability assay. In (D), SCC-13 spheroids were grown for 10 days, treated with 0 or 20 μM NC9 for 48 hours, and TG2 level was assayed by immunoblot. In (E), SCC-13 cells were grown as monolayers in spheroid medium and TG2 activity was monitored by FC incorporation assay as outlined in the Materials and Methods for Example 7. In (F), SCC-13 cell 8 day spheroids were treated with […] NC9 and cells were harvested at the indicated times for immunoblot detection of procaspase 3 and cleaved caspase 3. In all panels, the values are mean±SEM, n=3, p<0.05.

TG2 mRNA = TG2 mRNA expression by qRT-PCR in GBM cell lines; conditions: 10 μM, 24 or 48 h
Procedure: Q-RTPCR. After RNA isolation, cDNA was synthesized using the verso cDNA kit (ThermoFisher) with oligo-dT primers following the manufacturer's instructions. Quantitative real time PCR was carried out using SYBR green mix (Agilent Technologies) along with primers against total human TG2 or GAPDH (for normalization) as previously described (Cao, L. et al., Oncogene 31(20):2521-34, 2012).

A431 cells = assay: Spheroid formation assay, A431 cells; conditions: 20 μM, 48 h on day 8 spheroids
Procedure: In (A), it is shown that A431-derived ECS cells have elevated TG2 and mesenchymal markers. A431 cells (40,000 cells/well) were grown in spheroid media in monolayer conditions or as non-attached spheroids (ECS cells) for 10 d. Cells were harvested and lysates prepared for immunoblot. In (B), A431 cells were electroporated with 3 μg of control- or TG2-siRNA and at 72 h extracts were prepared to assay TG2 and EMT marker level. In (C), A431-derived ECS cells were electroporated with 3 μg of the indicated siRNA and then grown as spheroids for 96 h. […] In (D), A431 cells (500,000 cells/well) were plated in monolayer culture in spheroid media in 100 mm dishes. The following day, at time zero, 0 or 20 μM NC9 was added with fresh addition of medium and NC9 at 24 h. At 48 h the cells were harvested and extracts prepared for immunoblot. In (E), A431 cells were pretreated in 0 or 20 μM NC9 for 2 h and then harvested and 25,000 cells were seeded in the upper chamber above a matrigel-coated membrane in 1 mL of growth medium containing 1% FCS in a Millicell chamber. […] Confluent monolayers were then scratched with a 10-μL pipette tip, rinsed, and width of the wound was monitored for 0-14 h.
Spheroid formation assay. […] Spheroid size and number was monitored with time in culture as previously described (Adhikary, G. et al., PLoS One 8:e84324, 2013).

In the case of C=CC(=O)NCCCC[C@H](NC(=O)OCc1ccccc1)C(=O)NCCOCCOCCNS(=O)(=O)c1cccc2c(N(C)C)cccc12 [NC9], the “phospho-EGFR and EGFR levels, longer treatment” value (EGFR; U87 and T98G cells, 10 μM, 48-72 h) is reported as “decrease phospho-EGFR and EGFR levels in U87 cells, but not T98G cells”, the “EGFR or phospho-EGFR levels, shorter treatment” value (EGFR; U87 cells, 10 μM 24 h, then 100 ng/mL EGF 10 min) is reported as “did not result in a decrease” and the “time to initiation of procaspase 3 cleavage after addition” value (procaspase 3) is reported as no more than 1 h. The “TG2 mRNA levels” value (TG2 mRNA) was “no significant effects” and the spheroid formation (A431 cells) was “reduced spheroid formation”.
